Assay results published in publication PMC9221443, “Peptidomimetics Based on C-Terminus of Blm10 Stimulate Human 20S Proteasome Activity and Promote Degradation of Proteins” (Biomolecules, 2022).

Key:
[1] = system: ChT-L peptidase of proteasome in HEK293T cell extracts; test: Proteasome ChT-L activity in HEK293T cell lysates; type: biochemical, human; conditions: 1 µM; HEK293T lysate 20 µg/mL protein; 100 µM Suc-LLVY-AMC
Description: Human embryonic kidney cells (HEK293T) were maintained in Dulbecco’s Modified Eagle Medium (DMEM) supplemented with 10% Fetal Bovine Serum and penicillin/streptomycin (100 units/mL/100 µg/mL), at 37 °C with 5% CO2. Cells were grown in a T-75 flask to ~80% confluency and then were lysed using Reporter Lysis Buffer (Promega, Madison, WI, USA) and the manufacturer’s protocol. Protein content was measured using BCA assay. Stock solutions of the fluorogenic substrate (Suc-LLVY-AMC) and the tested peptidomimetics were prepared in dimethyl sulfoxide (DMSO). Potential activators were tested in the following concentrations: 1, 5, 10, 25 and 50 μM. The final DMSO concentration was kept constant at 2%. The activity assays were performed analogously to those described in the proteasome activity assays subsection, in the 96-well plate format in 50 mM Tris-HCl buffer, pH 8.0, using a 100 μL reaction volume. The final concentration of the fluorogenic substrate and cell lysate proteins were: 100 μM and 20 µg/mL, respectively. As a negative control, 1 μM bortezomib solution was used.

[2] = target: 20S proteasome (h20S); test: Microscale thermophoresis (MST) protein-proteasome interaction; type: binding, human; conditions: NT-647-labeled protein titrated with h20S 0.06-1965 nM, 22 °C, 20 mM Tris-HCl pH 7.2, three independent experiments
Description: Enolase, α-synuclein and their oxidized forms were labeled using Monolith Protein Labeling Kit RED-NHS 2nd Generation Amine Reactive, NT-647 (Nanotemper, München, Germany), according to the manufacturer instructions. The labeling process was carried out in 50 mM HEPES buffer, pH 7.4, in the protein:NT-647 1:2 ratio. The incubation time was 60 min for enolase and 30 min for α-synuclein, at 21 °C. After labeling, the excess of the fluorescent reagent was removed using the columns provided by the manufacturer and 20 mM Tris-HCl buffer, pH 7.2, containing 200 mM NaCl and 10% glycerol. The obtained labeled proteins were concentrated on Amicon 3K spin-columns (Merck, Darmstadt, Germany). Protein concentrations were determined by measuring absorbance at 280 nm, using UV/Vis spectrophotometer (DU®730 Beckman Coulter).
Direct interactions between the fluorescently labeled, native and oxidized, proteins and the 20S proteasome were examined using microscale thermophoresis (NanoTemper Monolith NT.115). The labeled protein concentration was kept constant at 250 nM for native and oxidized α-synuclein and 125 nM and 25 nM for native and oxidized enolase, respectively. […] The EC50 values were calculated based on results obtained in three independent experiments.

CC(C)C[C@H](NC(=O)[C@H](Cc1ccccc1)NC(=O)c1cnccn1)B(O)O [bortezomib]
degradation of Suc-LLVY-AMC substrate in cell extracts (negative control) [1]: completely blocked

enolase: native human enolase 2, 434-residue thermolabile protein, model substrate
EC50 of binding to 20S proteasome (MST, Hill fit) [2]: did not bind

α-synuclein
EC50 ([2]; read-out: EC50 of binding to 20S proteasome (MST, Hill fit)): 32.3 ± 1.3 nM
